Experimental data reported in PubChem BioAssay AID248 (DTP/NCI, 2004).
Inconclusive results and toxic doses are left out.

System: L1210 leukemia ip in BDF1 mice, survival T/C
Assay: NCI In Vivo Anticancer Drug Screen. Data for tumor model L1210 Leukemia (intraperitoneal) in B6D2F1 (BDF1) mice
Conditions: endpoint: mean survival time, higher = longer survival
Method in brief: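 Antitumor effect is assessed in tumor-bearing animals. Survival in the compound arm is compared with a vehicle-dosed control arm and expressed as their quotient.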

[1] = dose: 50.0 mg/kg/injection, schedule: Q01DX001 (ip), vehicle: carboxymethylcellulose (CMC)
[2] = dose: 400.0 mg/kg/injection, schedule: Q01DX001 (ip), vehicle: carboxymethylcellulose (CMC)
[3] = dose: 100.0 mg/kg/injection, schedule: Q01DX009 (ip), vehicle: Klucel (hydroxypropylcellulose) (HPC)
[4] = dose: 100.0 mg/kg/injection, schedule: Q04DX003 (ip), vehicle: Klucel (hydroxypropylcellulose) (HPC)
[5] = dose: 200.0 mg/kg/injection, schedule: Q01DX009 (ip), vehicle: Klucel (hydroxypropylcellulose) (HPC)
[6] = dose: 200.0 mg/kg/injection, schedule: Q04DX003 (ip), vehicle: Klucel (hydroxypropylcellulose) (HPC)
[7] = dose: 400.0 mg/kg/injection, schedule: Q01DX009 (ip), vehicle: Klucel (hydroxypropylcellulose) (HPC)
[8] = dose: 400.0 mg/kg/injection, schedule: Q04DX003 (ip), vehicle: Klucel (hydroxypropylcellulose) (HPC)
[9] = dose: 100.0 mg/kg/injection, schedule: Q04DX002 (ip), vehicle: Klucel (hydroxypropylcellulose) (HPC)
[10] = dose: 200.0 mg/kg/injection, schedule: Q04DX002 (ip), vehicle: Klucel (hydroxypropylcellulose) (HPC)
[11] = dose: 400.0 mg/kg/injection, schedule: Q04DX002 (ip), vehicle: Klucel (hydroxypropylcellulose) (HPC)
[12] = dose: 100.0 mg/kg/injection, schedule: Q01DX001 (ip), vehicle: carboxymethylcellulose (CMC)
[13] = dose: 200.0 mg/kg/injection, schedule: Q01DX001 (ip), vehicle: carboxymethylcellulose (CMC)
[14] = dose: 100.0 mg/kg/injection, schedule: Q01DX001 (ip), vehicle: saline
[15] = dose: 200.0 mg/kg/injection, schedule: Q01DX001 (ip), vehicle: saline
[16] = dose: 400.0 mg/kg/injection, schedule: Q01DX001 (ip), vehicle: saline
[17] = dose: 100.0 mg/kg/injection, schedule: Q04DX003 (ip), vehicle: saline
[18] = dose: 200.0 mg/kg/injection, schedule: Q04DX003 (ip), vehicle: saline
[19] = dose: 100.0 mg/kg/injection, schedule: Q04DX003 (ip), vehicle: saline with Tween-80
[20] = dose: 400.0 mg/kg/injection, schedule: Q04DX003 (ip), vehicle: saline

`COc1ccc(CCO)cc1OC` was tested, and the T/C [1] was 95 % of control, the T/C (dose: 100.0 mg/kg/injection, schedule: Q01DX009 (ip), vehicle: water) was 93 % of control and the T/C (dose: 100.0 mg/kg/injection, schedule: Q04DX003 (ip), vehicle: water) was 100 % of control. The T/C (dose: 200.0 mg/kg/injection, schedule: Q01DX009 (ip), vehicle: water) was 93 % of control, the T/C (dose: 200.0 mg/kg/injection, schedule: Q04DX003 (ip), vehicle: water) was 97 % of control and the T/C [2] was 97 % of control. For the same molecule, the T/C (dose: 400.0 mg/kg/injection, schedule: Q01DX009 (ip), vehicle: water) was 95 % of control and the T/C (dose: 400.0 mg/kg/injection, schedule: Q04DX003 (ip), vehicle: water) was 97 % of control.

For `O=C(NN1C(=O)CSC1=S)c1ccc([N+](=O)[O-])s1`, the T/C (dose: 50.0 mg/kg/injection, schedule: Q01DX005 (ip), vehicle: saline) was 96 % of control and the T/C (dose: 100.0 mg/kg/injection, schedule: Q01DX005 (ip), vehicle: saline) was 102 % of control.

`NC(N)=NC(N)=Nc1ccc2ccccc2c1[N+](=O)[O-]` was tested, and the T/C [3] was 94 % of control, the T/C [4] was 97 % of control and the T/C [5] was 100 % of control. The T/C [6] was 100 % of control, the T/C [7] was 98 % of control and the T/C [8] was 95 % of control.

`O=C(c1ccccc1)c1cc(Cl)ccc1O` was tested, and the T/C (dose: 75.0 mg/kg/injection, schedule: Q01DX009 (ip), vehicle: Klucel (hydroxypropylcellulose) (HPC)) was 102 % of control, the T/C [9] was 100 % of control and the T/C (dose: 150.0 mg/kg/injection, schedule: Q01DX009 (ip), vehicle: Klucel (hydroxypropylcellulose) (HPC)) was 98 % of control. The T/C [10] was 93 % of control, the T/C (dose: 300.0 mg/kg/injection, schedule: Q01DX009 (ip), vehicle: Klucel (hydroxypropylcellulose) (HPC)) was 94 % of control and the T/C [11] was 96 % of control.

In the case of `CN(N=O)C(=O)NCCCCNC(=O)N(C)N=O`, the T/C (dose: 6.25 mg/kg/injection, schedule: Q01DX Z (ip), vehicle: carboxymethylcellulose (CMC)) is reported as 107 % of control, the T/C (dose: 12.5 mg/kg/injection, schedule: Q01DX Z (ip), vehicle: carboxymethylcellulose (CMC)) is reported as 112 % of control and the T/C (dose: 25.0 mg/kg/injection, schedule: Q01DX Z (ip), vehicle: carboxymethylcellulose (CMC)) is reported as 111 % of control. For the same molecule, the T/C (dose: 50.0 mg/kg/injection, schedule: Q01DX Z (ip), vehicle: carboxymethylcellulose (CMC)) was 108 % of control and the T/C (dose: 200.0 mg/kg/injection, schedule: Q01DX Z (ip), vehicle: carboxymethylcellulose (CMC)) was 163 % of control.

In the case of `O=C1CCSC1`, the T/C (dose: 50.0 mg/kg/injection, schedule: Q01DX009 (ip), vehicle: saline with Tween-80) is reported as 87 % of control, the T/C (dose: 100.0 mg/kg/injection, schedule: Q01DX009 (ip), vehicle: saline with Tween-80) is reported as 98 % of control and the T/C (dose: 200.0 mg/kg/injection, schedule: Q01DX009 (ip), vehicle: saline with Tween-80) is reported as 98 % of control.

With `CC(=O)NC1C(Oc2ccccc2)OC(C(O)CO)C1O` (stereo not drawn) the T/C (dose: 100.0 mg/kg/injection, schedule: Q01DX001 (sc), vehicle: saline) was 108 % of control, the T/C (dose: 200.0 mg/kg/injection, schedule: Q01DX001 (sc), vehicle: saline) was 103 % of control and the T/C (dose: 400.0 mg/kg/injection, schedule: Q01DX001 (sc), vehicle: saline) was 108 % of control.

With `[O-][N+](=Nc1cccc(Br)c1)c1cccc(Br)c1` the T/C [1] was 101 % of control, the T/C [12] was 104 % of control and the T/C [13] was 101 % of control. The T/C [2] was 117 % of control.

For `CC(CC(C)(C)C)C(=O)Cl` (stereo not drawn), the T/C [14] was 95 % of control, the T/C [15] was 92 % of control and the T/C [16] was 108 % of control.

With `N#Cc1cn(C2OC(CO)C(O)C2O)c2ncnc(Cl)c12` (stereo not drawn) the T/C [14] was 103 % of control, the T/C [15] was 104 % of control and the T/C [16] was 103 % of control.

`Oc1cccc(Nc2ccccc2)c1` was tested, and the T/C [9] was 106 % of control, the T/C [10] was 95 % of control and the T/C [11] was 95 % of control.

`CCOC(=O)c1cnc2ccccn2c1=O` was tested, and the T/C (dose: 50.0 mg/kg/injection, schedule: Q01DX009 (ip), vehicle: saline) was 96 % of control, the T/C (dose: 100.0 mg/kg/injection, schedule: Q01DX001 (ip), vehicle: saline with Tween-80) was 92 % of control and the T/C (dose: 100.0 mg/kg/injection, schedule: Q01DX009 (ip), vehicle: saline) was 93 % of control. For the same molecule, the T/C [17] was 92 % of control, the T/C (dose: 200.0 mg/kg/injection, schedule: Q01DX001 (ip), vehicle: saline with Tween-80) was 94 % of control and the T/C (dose: 200.0 mg/kg/injection, schedule: Q01DX009 (ip), vehicle: saline) was 101 % of control. The T/C [18] was 94 % of control.

With `CCCCCCCCP(=O)(O)CCCCCCCC` the T/C (dose: 25.0 mg/kg/injection, schedule: Q04DX003 (ip), vehicle: saline with Tween-80) was 96 % of control, the T/C (dose: 50.0 mg/kg/injection, schedule: Q04DX003 (ip), vehicle: saline with Tween-80) was 87 % of control and the T/C [19] was 91 % of control.

`CSc1nccc(Cl)n1` was tested, and the T/C [1] was 105 % of control, the T/C [12] was 102 % of control and the T/C [13] was 96 % of control. For the same molecule, the T/C [2] was 91 % of control.

For `C(=N\N1CCN(/N=C/c2c[nH]c3ccccc23)CC1)/c1c[nH]c2ccccc12`, the T/C [14] was 94 % of control, the T/C [15] was 94 % of control and the T/C [16] was 94 % of control.

`CCCCOB1OC(C)CC(C)(C)O1` (stereo not drawn) was tested, and the T/C [14] was 106 % of control, the T/C [15] was 97 % of control and the T/C [16] was 99 % of control.

In the case of `COC(=O)/C=C1/Nc2cc(Cl)c(OC)cc2C(=O)NC1=O`, the T/C (dose: 75.0 mg/kg/injection, schedule: Q04DX003 (ip), vehicle: other) is reported as 91 % of control and the T/C (dose: 150.0 mg/kg/injection, schedule: Q04DX003 (ip), vehicle: other) is reported as 91 % of control.

In the case of `Cc1c(N)nc(Br)c2ccccc12`, the T/C [19] is reported as 105 % of control, the T/C (dose: 200.0 mg/kg/injection, schedule: Q04DX003 (ip), vehicle: saline with Tween-80) is reported as 101 % of control and the T/C (dose: 400.0 mg/kg/injection, schedule: Q04DX003 (ip), vehicle: saline with Tween-80) is reported as 110 % of control.

In the case of `Cc1cccc(C)c1C1CC1S(=O)(=O)c1ccccc1` (stereo not drawn), the T/C [14] is reported as 101 % of control, the T/C [17] is reported as 100 % of control and the T/C [15] is reported as 98 % of control. For the same molecule, the T/C [18] was 94 % of control, the T/C [16] was 111 % of control and the T/C [20] was 104 % of control.

In the case of `CCCCCCCCCCCCCCCCCCn1cnc2c(=S)nc[nH]c21`, the T/C (dose: 12.5 mg/kg/injection, schedule: Q01DX005 (ip), vehicle: other) is reported as 106 % of control, the T/C (dose: 25.0 mg/kg/injection, schedule: Q01DX005 (ip), vehicle: other) is reported as 98 % of control and the T/C (dose: 50.0 mg/kg/injection, schedule: Q01DX005 (ip), vehicle: other) is reported as 95 % of control. The T/C (dose: 100.0 mg/kg/injection, schedule: Q01DX005 (ip), vehicle: other) was 104 % of control and the T/C (dose: 200.0 mg/kg/injection, schedule: Q01DX005 (ip), vehicle: other) was 90 % of control.

In the case of `Clc1ccc2c(c1)C(Nc1cc3c4ccccc4ccc3c3ccccc13)c1cc(Cl)cc(Cl)c1-2` (stereo not drawn), the T/C [3] is reported as 88 % of control, the T/C [4] is reported as 90 % of control and the T/C [5] is reported as 88 % of control. The T/C [6] was 95 % of control, the T/C [7] was 86 % of control and the T/C [8] was 93 % of control.

For `CCCCCC(=O)OC1CCCCC1C1CCCCC1` (stereo not drawn), the T/C [1] was 96 % of control, the T/C [12] was 94 % of control and the T/C [13] was 100 % of control. For the same molecule, the T/C [2] was 96 % of control.

In the case of `O=C(n1ccnc1)C(F)(F)F`, the T/C (dose: 100.0 mg/kg/injection, schedule: Q01DX001 (ip), vehicle: saline sonified) is reported as 105 % of control, the T/C [17] is reported as 109 % of control and the T/C (dose: 200.0 mg/kg/injection, schedule: Q01DX001 (ip), vehicle: saline sonified) is reported as 108 % of control. For the same molecule, the T/C [18] was 91 % of control, the T/C (dose: 400.0 mg/kg/injection, schedule: Q01DX001 (ip), vehicle: saline sonified) was 101 % of control and the T/C [20] was 97 % of control.

In the case of `S=c1c2[nH]cnc2ncn1C1CCCC1`, the T/C (dose: 5.0 mg/kg/injection, schedule: Q01DX001 (ip), vehicle: other) is reported as 100 % of control, the T/C (dose: 10.0 mg/kg/injection, schedule: Q01DX001 (ip), vehicle: other) is reported as 106 % of control and the T/C (dose: 15.0 mg/kg/injection, schedule: Q01DX009 (ip), vehicle: saline with Tween-80) is reported as 119 % of control. For the same molecule, the T/C (dose: 20.0 mg/kg/injection, schedule: Q01DX001 (ip), vehicle: other) was 103 % of control and the T/C (dose: 33.5 mg/kg/injection, schedule: Q01DX009 (ip), vehicle: saline with Tween-80) was 104 % of control.
